The values that follow come from publication PMC10581193 (Microbiology Spectrum, 2023).

Converted amounts (≈) assume the structure as drawn.

One assay relates to M. tuberculosis H37Ra. As to the kind of experiment: microbe, parasite or virus in culture. The class given is cell-based, Mycobacterium tuberculosis.
Conditions: not given
“6-bromo-N-(2-fluoroethyl)-4-((2-methoxy-5-(trifluoromethyl)pyridin-3-yl)methyl)-3,4-dihydro-2H-benzo[2, 4]oxazine-8-carboxamide [B3]”: the “MIC against H37Ra” value stood at 1.56 µg/mL.
`Cc1cc(C(=O)NCCO)c2c(c1)N(Cc1nc(C)c(C)nc1C)CCO2` [B13, N-(2-hydroxyethyl)-6-methyl-4-((3,5,6-trimethylpyrazin-2-yl)methyl)-3,4-dihydro-2H-benzo[b][1,4]oxazine-8-carboxamide]: the “MIC against H37Ra” value was ≥ 100.
Turning to `Cc1nc(C)c(CN2CCOc3c(C(=O)NCC(F)F)cc(Br)cc32)nc1C` [B2], the “MIC against H37Ra” value is recorded as 0.39.
The same measure, in the same setting: the value for “6-bromo-N-(2-fluoroethyl)−4-((3,5,6-trimethylpyrazin-2-yl)methyl)−3,4-dihydro-2H-benzo[2, 4]oxazine-8-carboxamide [B1]” was 6.25 µg/mL.
Take “6-bromo-N-(2-hydroxyethyl)-4-((2-methoxy-5-(trifluoromethyl)pyridin-3-yl)methyl)-3,4-dihydro-2H-benzo[2, 4]oxazine-8-carboxamide [B4]”: the “MIC against H37Ra” value was found to be 25 µg/mL.

Still in this assay, the particulars now being: Mycobacterium tuberculosis, H37RA, read-out: MIC against H37Ra.
Consider `COc1c(CN2CCOc3c(C(=O)NCC(F)F)cc(Br)cc32)ccc(F)c1F` [B9, 6-bromo-4-(3,4-difluoro-2-methoxybenzyl)-N-(2,2-difluoroethyl)-3,4-dihydro-2H-benzo[b][1,4]oxazine-8-carboxamide], for which the MIC was > 100 µg/mL.
Still for that read-out and setting: the figure for `COc1ccc(F)c(F)c1CN1CCOc2c(C(=O)NCCO)cc(Br)cc21` [B8, 6-bromo-4-(2,3-difluoro-6-methoxybenzyl)-N-(2-hydroxyethyl)-3,4-dihydro-2H-benzo[b][1,4]oxazine-8-carboxamide] is > 100 µg/mL; for `Cc1ccc(CN2CCOc3c(C(=O)NCC(F)(F)F)cc(C4CC4)cc32)cc1` [B21, 6-cyclopropyl-4-(4-methylbenzyl)-N-(2,2,2-trifluoroethyl)-3,4-dihydro-2H-benzo[b][1,4]oxazine-8-carboxamide] it is > 25 µg/mL; for `COc1ccc(F)c(F)c1CN1CCOc2c(C(=O)NCC(F)F)cc(Br)cc21` [B7, 6-bromo-4-(2,3-difluoro-6-methoxybenzyl)-N-(2,2-difluoroethyl)-3,4-dihydro-2H-benzo[b][1,4]oxazine-8-carboxamide] it is > 100 µg/mL.
`Cc1nc(C)c(CN2CCOc3c(C(=O)N[C@H](C)C(F)(F)F)cc(C4CC4)cc32)nc1C` [B27, (R)-6-cyclopropyl-N-(1,1,1-trifluoropropan-2-yl)-4-((3,5,6-trimethylpyrazin-2-yl)methyl)-3,4-dihydro-2H-benzo[b][1,4]oxazine-8-carboxamide]: the MIC was > 25 µg/mL.
`Cc1nc(C)c(CN2CCOc3c(C(=O)N[C@@H](C)C(F)(F)F)cc(C4CC4)cc32)nc1C` [B26, (S)-6-cyclopropyl-N-(1,1,1-trifluoropropan-2-yl)-4-((3,5,6-trimethylpyrazin-2-yl)methyl)-3,4-dihydro-2H-benzo[b][1,4]oxazine-8-carboxamide]: the MIC was > 25 µg/mL.
On the same count and under the same terms, the figure for `COc1ncc(C(F)(F)F)cc1Cn1ccc2c(C(=O)NCC(F)F)cc(Br)cc21` [A5, 6-bromo-N-(2,2-difluoroethyl)-1-((2-methoxy-5-(trifluoromethyl)pyridin-3-yl)methyl)-1H-indole-4-carboxamide] is > 6.25 µg/mL; for `Cc1cc(C(=O)NC2CC2)c2c(c1)N(Cc1nc(C)c(C)nc1C)CCO2` [B14, N-cyclopropyl-6-methyl-4-((3,5,6-trimethylpyrazin-2-yl)methyl)-3,4-dihydro-2H-benzo[b][1,4]oxazine-8-carboxamide] it is 50 µg/mL (≈ 136 µM); for `O=C(NCC(F)(F)F)c1cc(C2CC2)cc2c1OCCN2Cc1ccc2ccccc2c1` [B20, 6-cyclopropyl-4-(naphthalen-2-ylmethyl)-N-(2,2,2-trifluoroethyl)-3,4-dihydro-2H-benzo[b][1,4]oxazine-8-carboxamide] it is > 25 µg/mL.
Regarding `Cc1nc(C)c(CN2CCOc3c(C(=O)NCC(F)(F)F)cc(-c4ccccc4)cc32)nc1C` [B33], the MIC was > 25 µg/mL.
On the same count and under the same terms, the figure for `Cc1cc(C(=O)NCCO)c2c(c1)N(Cc1nc(C)c(C)nc1C)CCO2` [B13, N-(2-hydroxyethyl)-6-methyl-4-((3,5,6-trimethylpyrazin-2-yl)methyl)-3,4-dihydro-2H-benzo[b][1,4]oxazine-8-carboxamide] is > 100 µg/mL; for `Cc1nc(C)c(CN2CCOc3c(C(=O)NCC(F)F)cc(Br)cc32)nc1C` [B2] it is 0.39 µg/mL (≈ 0.857 µM).
Take `Cc1cc(C(=O)NC2CCCC2)c2c(c1)N(Cc1nc(C)c(C)nc1C)CCO2` [B15, N-cyclopentyl-6-methyl-4-((3,5,6-trimethylpyrazin-2-yl)methyl)-3,4-dihydro-2H-benzo[b][1,4]oxazine-8-carboxamide]: the MIC was 1.56 µg/mL (≈ 3.95 µM).
Same read-out and setting: the value for `COc1cc(CN2CCOc3c(C(=O)NCC(F)(F)F)cc(C4CC4)cc32)cc(OC)c1` [B23, 6-cyclopropyl-4-(3,5-dimethoxybenzyl)-N-(2,2,2-trifluoroethyl)-3,4-dihydro-2H-benzo[b][1,4]oxazine-8-carboxamide] was > 25 µg/mL.
For the compound `COc1ncnc(Cn2ccc3c(C(=O)NCC(F)F)cc(C)cc32)c1C` [A9, N-(2,2-difluoroethyl)-1-((6-methoxy-5-methylpyrimidin-4-yl)methyl)-6-methyl-1H-indole-4-carboxamide], the MIC was determined as 0.18 µg/mL (≈ 0.481 µM).
The same measure, in the same setting: the figure for `Cc1nc(C)c(CN2CCOc3c(C(=O)NCC(F)(F)CO)cc(C4CC4)cc32)nc1C` [B30, 6-cyclopropyl-N-(2,2-difluoro-3-hydroxypropyl)-4-((3,5,6-trimethylpyrazin-2-yl)methyl)-3,4-dihydro-2H-benzo[b][1,4]oxazine-8-carboxamide] is > 25 µg/mL; for `COC(=O)c1cccc(CN2CCOc3c(C(=O)NCC(F)(F)F)cc(C4CC4)cc32)c1` [B25, methyl 3-((6-cyclopropyl-8-((2,2,2-trifluoroethyl)carbamoyl)-2,3-dihydro-4H-benzo[b][1,4]oxazin-4-yl)methyl)benzoate] it is > 25 µg/mL.
In the case of `Cc1nc(C)c(Cn2ccc3c(C(=O)NCC(F)F)cc(Br)cc32)nc1C` [A3, 6-bromo-N-(2,2-difluoroethyl)-1-((3,5,6-trimethylpyrazin-2-yl)methyl)-1H-indole-4-carboxamide], the MIC was > 6.25 µg/mL.
On to `Cc1cc(C(=O)NC2CCCCC2)c2c(c1)N(Cc1nc(C)c(C)nc1C)CCO2` [B16, N-cyclohexyl-6-methyl-4-((3,5,6-trimethylpyrazin-2-yl)methyl)-3,4-dihydro-2H-benzo[b][1,4]oxazine-8-carboxamide], for which the MIC is < 0.78 µg/mL.
`COc1ccc(F)c(F)c1CN1CCOc2c(C(=O)NCCF)cc(Br)cc21` [B6, 6-bromo-4-(2,3-difluoro-6-methoxybenzyl)-N-(2-fluoroethyl)-3,4-dihydro-2H-benzo[b][1,4]oxazine-8-carboxamide]: the MIC was > 100 µg/mL.
As to `Cc1nc(C)c(CN2CCOc3c(C(=O)NCC(F)F)cc(C4CC4)cc32)nc1C` [B17, 6-cyclopropyl-N-(2,2-difluoroethyl)-4-((3,5,6-trimethylpyrazin-2-yl)methyl)-3,4-dihydro-2H-benzo[b][1,4]oxazine-8-carboxamide], the MIC worked out at 0.6 µg/mL (≈ 1.44 µM).
Same read-out and setting: the figure for `Cc1nc(C)c(CN2CCOc3c(C(=O)NCCO)cc(C4CC4)cc32)nc1C` [B19, 6-cyclopropyl-N-(2-hydroxyethyl)-4-((3,5,6-trimethylpyrazin-2-yl)methyl)-3,4-dihydro-2H-benzo[b][1,4]oxazine-8-carboxamide] is > 100 µg/mL.
The same measure, in the same setting: the figure for `COc1ncc(C(F)(F)F)cc1Cn1ccc2c(C(=O)NCC(F)F)cc(C)cc21` [A10, N-(2,2-difluoroethyl)-1-((2-methoxy-5-(trifluoromethyl)pyridin-3-yl)methyl)-6-methyl-1H-indole-4-carboxamide] is > 6.25 µg/mL.
